Our source for the viability values is article PMC12040169 (PLOS Biology, 2025).

Broadly, the viability is a read-out of living cells in per cent, often relative to untreated cells.

The data set is described as follows: in vitro. Particulars: human, hela cells, % viability.
As to `COc1cc(-c2cnc(N)c(NCc3ccncc3)n2)cc(OC)c1OC` [CBK063646], the viability at 28.5 h, 10 µM came to 94.8%.

Turning to `CS(=O)(=O)c1ccc(-c2cnc(N)c(NCc3ccncc3)n2)cc1` [CBK063647], the viability at 28.5 h, 10 µM was 105%.

For `Nc1ncc(-c2cccc(CO)c2)nc1NC1CCCCC1` [CBK063650], the viability at 28.5 h, 10 µM worked out at 101%.

`Nc1ncc(-c2cc(C(F)(F)F)cc(C(F)(F)F)c2)nc1Nc1ccc2[nH]ccc2c1` [CBK063651]: the viability at 28.5 h, 10 µM is 71.9%.

For `Nc1ncc(-c2ccoc2)nc1NCc1ccco1` [CBK063652], the viability at 28.5 h, 10 µM is 97.2%.

As to `CC(=O)Nc1cccc(-c2cnc(N)c(N3CCC(C(=O)O)CC3)n2)c1` [CBK063657], the viability at 28.5 h, 10 µM was found to be 98.9%.

As to `CN(C)CCNc1nc(-c2cncnc2)cnc1N` [CBK063661], the viability at 28.5 h, 10 µM worked out at 97.8%.

As to `Nc1ncc(-c2cccc(/C=C/C(=O)O)c2)nc1N1CCN(CCO)CC1` [CBK063665], the viability at 28.5 h, 10 µM is 98.7%.

For the compound `Nc1ncc(-c2ccc(O)cc2)nc1N1CCC[C@@H]1CO` [CBK063669], the viability at 28.5 h, 10 µM amounted to 91.7%.

Regarding `Nc1ncc(-c2cccc(O)c2)nc1NCc1ccco1` [CBK063675], the viability at 28.5 h, 10 µM is 92.1%.

Turning to `COc1ccc(-c2cnc(N)c(NCCCN3CCOCC3)n2)c(OC)c1OC` [CBK063676], the viability at 28.5 h, 10 µM was 113%.

For `COc1cccc(-c2cnc(N)c(NCc3ccco3)n2)c1` [CBK063684], the viability at 28.5 h, 10 µM came to 99.6%.

Regarding `Nc1ncc(-c2cc(C(F)(F)F)cc(C(F)(F)F)c2)nc1NCc1ccco1` [CBK063689], the viability at 28.5 h, 10 µM was 91.6%.

Regarding `CN(C)CCNc1nc(-c2cccc3ncccc23)cnc1N` [CBK063693], the viability at 28.5 h, 10 µM was determined as 102%.

Turning to `COc1ccc(C(C)C)cc1-c1cnc(N)c(NCc2ccncc2)n1` [CBK063695], the viability at 28.5 h, 10 µM turned out to be 97.5%.

In the case of `C[C@@H](Nc1nc(-c2cccc(-c3ccccc3)c2)cnc1N)c1ccccc1` [CBK063704], the viability at 28.5 h, 10 µM stood at 96.3%.

For the compound `C[C@H](Nc1nc(-c2ccoc2)cnc1N)c1ccccc1` [CBK063707], the viability at 28.5 h, 10 µM amounted to 105%.

Regarding `C[C@H](Nc1nc(-c2cccc(C(=O)NCCN(C)C)c2)cnc1N)c1ccccc1` [CBK063714], the viability at 28.5 h, 10 µM came to 112%.

For `C[C@H](Nc1nc(-c2cccc(C(N)=O)c2)cnc1N)c1ccccc1` [CBK063715], the viability at 28.5 h, 10 µM was 97.1%.

Consider `C[C@@H](Nc1nc(-c2cc(C(F)(F)F)cc(C(F)(F)F)c2)cnc1N)c1ccccc1` [CBK063720], for which the viability at 28.5 h, 10 µM was 105%.

Turning to `CCCC/C=C/c1cnc(N)c(N[C@@H](C)c2ccccc2)n1` [CBK063722], the viability at 28.5 h, 10 µM turned out to be 109%.

On to `C[C@@H](Nc1nc(-c2ccccc2)cnc1N)c1ccccc1` [CBK063728], for which the viability at 28.5 h, 10 µM was 98.9%.

With `CC(C)[C@@H](CO)Nc1nc(-c2cncnc2)cnc1N` [CBK063735], the viability at 28.5 h, 10 µM was found to be 99.4%.

Regarding `C[C@@H](Nc1nc(-c2ccco2)cnc1N)c1ccccc1` [CBK063737], the viability at 28.5 h, 10 µM was 108%.

Consider `COc1ccc(-c2cnc(N)c(N[C@H](C)c3ccccc3)n2)c(OC)c1OC` [CBK063747], for which the viability at 28.5 h, 10 µM was 105%.

As to `Nc1ncc(-c2ccccc2)nc1NC1CCOCC1` [CBK063748], the viability at 28.5 h, 10 µM was 97.3%.

Consider `COc1ccccc1-c1cnc(N)c(N[C@@H](CO)C(C)C)n1` [CBK063749], for which the viability at 28.5 h, 10 µM was 101%.

As for `C[C@H](Nc1nc(-c2cccc(-c3ccccc3)c2)cnc1N)c1ccccc1` [CBK063752], the viability at 28.5 h, 10 µM worked out at 94.5%.

For `C[C@H](Nc1nc(-c2cccc(/C=C/C(=O)O)c2)cnc1N)c1ccccc1` [CBK063754], the viability at 28.5 h, 10 µM was found to be 85.2%.

On to `C[C@@H](Nc1nc(-c2cccc3ncccc23)cnc1N)c1ccccc1` [CBK063755], for which the viability at 28.5 h, 10 µM stood at 107%.

Turning to `CC(C)[C@@H](CO)Nc1nc(-c2cccc(Br)c2)cnc1N` [CBK063758], the viability at 28.5 h, 10 µM was 99.5%.

For the compound `COc1ccc(-c2cnc(N)c(N[C@@H](C)c3ccccc3)n2)c(OC)c1OC` [CBK063763], the viability at 28.5 h, 10 µM came out at 84.9%.

Take `CC(=O)c1ccc(-c2cnc(N)c(NCC(C)C)n2)s1` [CBK063764]: the viability at 28.5 h, 10 µM was determined as 92.8%.

In the case of `C[C@H](Nc1nc(-c2cc(C(F)(F)F)cc(C(F)(F)F)c2)cnc1N)c1ccccc1` [CBK063768], the viability at 28.5 h, 10 µM amounted to 106%.

For the compound `CC(C)CNc1nc(-c2cccnc2)cnc1N` [CBK063780], the viability at 28.5 h, 10 µM is 99.5%.

In the case of `C[C@@H](Nc1nc(-c2cccc3cccnc23)cnc1N)c1ccccc1` [CBK063784], the viability at 28.5 h, 10 µM came out at 90%.

As for `Nc1ncc(-c2ccco2)nc1NC1CCOCC1` [CBK063806], the viability at 28.5 h, 10 µM turned out to be 102%.

As for `CC(C)CNc1nc(-c2ccc(F)cc2)cnc1N` [CBK063815], the viability at 28.5 h, 10 µM stood at 105%.

On to `Nc1ncc(-c2ccncc2)nc1NCC1CCOCC1` [CBK063816], for which the viability at 28.5 h, 10 µM was determined as 105%.

Turning to `NC(=O)c1cccc(-c2cnc(N)c(NC3CCOCC3)n2)c1` [CBK063836], the viability at 28.5 h, 10 µM worked out at 98.8%.

For the compound `Nc1ncc(-c2ccccc2CO)nc1Nc1ccc2[nH]ccc2c1` [CBK063843], the viability at 28.5 h, 10 µM stood at 109%.

In the case of `COc1cncc(-c2cnc(N)c(NC3CCOCC3)n2)c1` [CBK063846], the viability at 28.5 h, 10 µM came out at 85.7%.

Turning to `Nc1ncc(-c2cccc(F)c2)nc1Nc1ccc2[nH]ccc2c1` [CBK063851], the viability at 28.5 h, 10 µM stood at 95.1%.

Regarding `Nc1ncc(-c2cccc3ncccc23)nc1NC1CCOCC1` [CBK063852], the viability at 28.5 h, 10 µM was 101%.

For `Nc1ncc(-c2cccc(Br)c2)nc1NC1CCOCC1` [CBK063854], the viability at 28.5 h, 10 µM was determined as 108%.

As for `Nc1ncc(-c2ccoc2)nc1Nc1ccc2[nH]ccc2c1` [CBK063868], the viability at 28.5 h, 10 µM was 80.5%.

For the compound `CC(C)CNc1nc(-c2cccc(N(C)C)c2)cnc1N` [CBK063870], the viability at 28.5 h, 10 µM stood at 97%.

Take `COc1ccc(-c2nc(-c3ccc(C#N)cc3)cnc2N)cc1OC` [CBK063885]: the viability at 28.5 h, 10 µM amounted to 94.6%.

For the compound `Nc1ncc(-c2cccc(/C=C/C(=O)O)c2)nc1NCCCO` [CBK063887], the viability at 28.5 h, 10 µM stood at 103%.

Turning to `Nc1ncc(-c2ccncc2)nc1-c1cccc2c1oc1ccccc12` [CBK063889], the viability at 28.5 h, 10 µM worked out at 102%.

On to `CCCC/C=C/c1cnc(N)c(-c2ccc(N3CCOCC3)cc2)n1` [CBK063891], for which the viability at 28.5 h, 10 µM amounted to 101%.

With `COCCNc1nc(-c2cccc(C(N)=O)c2)cnc1N` [CBK063901], the viability at 28.5 h, 10 µM was found to be 115%.

`CC(C)[C@H](CO)Nc1nc(-c2ccccc2)cnc1N` [CBK063933]: the viability at 28.5 h, 10 µM turned out to be 107%.

In the case of `CN(C)c1ccc(-c2nc(-c3ccco3)cnc2N)cc1` [CBK063934], the viability at 28.5 h, 10 µM turned out to be 104%.

For `Nc1ncc(-c2ccc(Cl)cc2)nc1-c1ccc(N2CCOCC2)cc1` [CBK063953], the viability at 28.5 h, 10 µM was determined as 111%.

With `COc1ccc(-c2nc(-c3cc4ccccc4s3)cnc2N)cc1OC` [CBK063963], the viability at 28.5 h, 10 µM amounted to 98.6%.

On to `COc1ccc(-c2nc(-c3ccoc3)cnc2N)cc1OC` [CBK063964], for which the viability at 28.5 h, 10 µM was found to be 105%.

Turning to `Nc1ncc(-c2ccoc2)nc1-c1ccc(C(=O)O)cc1` [CBK063972], the viability at 28.5 h, 10 µM came out at 89.6%.

In the case of `COCOc1ccc(-c2nc(-c3cccs3)cnc2N)cc1` [CBK063977], the viability at 28.5 h, 10 µM was determined as 101%.

On to `COc1ccc(-c2nc(-c3cccs3)cnc2N)cc1OC` [CBK063981], for which the viability at 28.5 h, 10 µM is 107%.

On to `COCOc1ccc(-c2nc(-c3cccc(NS(C)(=O)=O)c3)cnc2N)cc1` [CBK063985], for which the viability at 28.5 h, 10 µM stood at 105%.

For the compound `Nc1ncc(-c2cccs2)nc1-c1ccc(F)c(Cl)c1` [CBK063990], the viability at 28.5 h, 10 µM was 101%.

Turning to `NC(=O)c1cccc(-c2nc(-c3cc4ccccc4o3)cnc2N)c1` [CBK063996], the viability at 28.5 h, 10 µM was 94.5%.

Regarding `CN(C)c1cccc(-c2nc(-c3occc3C=O)cnc2N)c1` [CBK064001], the viability at 28.5 h, 10 µM is 92.1%.

For the compound `Nc1ncc(-c2occc2C=O)nc1-c1ccc(F)c(Cl)c1` [CBK064005], the viability at 28.5 h, 10 µM was determined as 101%.

As for `Nc1ncc(-c2ccco2)nc1-c1ccc(F)c(Cl)c1` [CBK064013], the viability at 28.5 h, 10 µM is 106%.

Take `COc1ncc(-c2cnc(N)c(-c3cccc(N(C)C)c3)n2)c(OC)n1` [CBK064017]: the viability at 28.5 h, 10 µM is 90.9%.

Consider `Nc1ncc(-c2cccc(OC(F)(F)F)c2)nc1-c1ccc(F)c(Cl)c1` [CBK064021], for which the viability at 28.5 h, 10 µM stood at 113%.

For the compound `CC(=O)c1ccc(-c2nc(-c3ccoc3)cnc2N)cc1` [CBK064058], the viability at 28.5 h, 10 µM was found to be 97.3%.

For `N#Cc1ccc(-c2cnc(N)c(-c3ccc(C(=O)N4CCOCC4)cc3)n2)cc1` [CBK064067T], the viability at 28.5 h, 10 µM amounted to 116%.

Regarding `CCCC/C=C/c1cnc(N)c(-c2ccc(O)cc2)n1` [CBK064068], the viability at 28.5 h, 10 µM stood at 95.3%.

Consider `Nc1ncc(-c2cccc(OC(F)(F)F)c2)nc1-c1ccc(CCC(=O)O)cc1` [CBK064071], for which the viability at 28.5 h, 10 µM was 95.2%.

For the compound `Nc1ncc(-c2ccoc2)nc1-c1ccc(C(=O)N2CCOCC2)cc1` [CBK064076], the viability at 28.5 h, 10 µM came to 101%.

Consider `COc1ccccc1-c1cnc(N)c(N2CCC(C(=O)O)CC2)n1` [CBK064082], for which the viability at 28.5 h, 10 µM was 96.1%.

With `Nc1ncc(-c2cccc(O)c2)nc1-c1ccc(C=O)cc1` [CBK064088], the viability at 28.5 h, 10 µM is 104%.

On to `CC(=O)c1ccc(-c2nc(-c3ccc(Cl)cc3)cnc2N)cc1` [CBK064097], for which the viability at 28.5 h, 10 µM was 89.6%.

As to `COc1ccc(-c2nc(-c3cc4ccccc4o3)cnc2N)cc1OC` [CBK064099], the viability at 28.5 h, 10 µM is 63.2%.

`Nc1ncc(-c2ccncc2)nc1-c1ccc(C=O)cc1` [CBK064102]: the viability at 28.5 h, 10 µM was found to be 106%.

As to `CC(=O)c1ccc(-c2nc(-c3cccc(OC(F)(F)F)c3)cnc2N)cc1` [CBK064105], the viability at 28.5 h, 10 µM was determined as 103%.

As for `NC(=O)c1cccc(-c2nc(-c3ccc(F)cc3F)cnc2N)c1` [CBK064109], the viability at 28.5 h, 10 µM worked out at 86.5%.

Consider `NC(=O)c1cccc(-c2nc(-c3cccs3)cnc2N)c1` [CBK064117], for which the viability at 28.5 h, 10 µM was 89.7%.

As to `Nc1ncc(-c2cc3ccccc3o2)nc1-c1ccc(C=O)cc1` [CBK064126], the viability at 28.5 h, 10 µM came to 91.9%.
